Tests used:
Assay type in all cases: biochemical
[1] = biological target: T1, SIK2 (Homo sapiens, UniProt Q9H0K1); experiment: 33P radioactive kinase assay, SIK2; also: AMARA 5 µM, 10 µM ATP
T1 construct: purchased ThermoFisher Scientific PV4792
Method: (§1) The principle of the ^33P radioactive kinase assay consists in measuring the incorporated ^33P into the substrate AMARA peptide when phosphorylated by SIK1, SIK2 or SIK3 using [^33P]-g-ATP, which correlates with kinase activity.
(§2) The test compounds are prepared as a serial dilution of 10 point dose responses with 1/5 dilution steps in 100% DMSO starting from 2 mM highest concentration, diluted 1/20 in water and 5 μL is transferred to the assay plates (Greiner, Cat #651201).
(§3) 1% DMSO and 10 μM staurosporine final concentrations are used as negative and positive controls.
(§4) 11 μL of enzyme-substrate mixture is added on the assay plates. The reactions are started by adding 9 μL ATP mixture, consisting of non-labeled and ^33P-labeled ATP, on the assay plates.
(§5) The reactions are stopped by adding 25 μL phosphoric acid (150 mM) to the reactions.
(§6) The completely terminated kinase reactions are transferred using a harvester on pre-wetted UniFilter-96 plates (UniFilter-96 GF/B, PerkinElmer Inc., Cat #6005177).
(§7) After harvesting the kinase reactions, the filter plates are washed 6 times with phosphoric acid (75 mM). The back of the UniFilter-96 plates are sealed and 40 μL MicroScint-20 (PerkinElmer Inc., Cat #6013621) is added to each well. The top of the plates are sealed with TopSeal-A. Read-out is performed with a TopCount instrument (PerkinElmer Inc.).
(§8) Raw data are generated following the read-out performed on the TopCount, plotted to generate dose response curves to calculate percentage inhibition (PIN) and average IC50 for each SIK homologue which are reported in the table below.

[2] = biological target: T2, SIK1 (Homo sapiens, UniProt P57059); experiment: 33P radioactive kinase assay, SIK1
T2 construct: purchased Carna Biosciences 02-131
T2 sequence (P57059 whole entry): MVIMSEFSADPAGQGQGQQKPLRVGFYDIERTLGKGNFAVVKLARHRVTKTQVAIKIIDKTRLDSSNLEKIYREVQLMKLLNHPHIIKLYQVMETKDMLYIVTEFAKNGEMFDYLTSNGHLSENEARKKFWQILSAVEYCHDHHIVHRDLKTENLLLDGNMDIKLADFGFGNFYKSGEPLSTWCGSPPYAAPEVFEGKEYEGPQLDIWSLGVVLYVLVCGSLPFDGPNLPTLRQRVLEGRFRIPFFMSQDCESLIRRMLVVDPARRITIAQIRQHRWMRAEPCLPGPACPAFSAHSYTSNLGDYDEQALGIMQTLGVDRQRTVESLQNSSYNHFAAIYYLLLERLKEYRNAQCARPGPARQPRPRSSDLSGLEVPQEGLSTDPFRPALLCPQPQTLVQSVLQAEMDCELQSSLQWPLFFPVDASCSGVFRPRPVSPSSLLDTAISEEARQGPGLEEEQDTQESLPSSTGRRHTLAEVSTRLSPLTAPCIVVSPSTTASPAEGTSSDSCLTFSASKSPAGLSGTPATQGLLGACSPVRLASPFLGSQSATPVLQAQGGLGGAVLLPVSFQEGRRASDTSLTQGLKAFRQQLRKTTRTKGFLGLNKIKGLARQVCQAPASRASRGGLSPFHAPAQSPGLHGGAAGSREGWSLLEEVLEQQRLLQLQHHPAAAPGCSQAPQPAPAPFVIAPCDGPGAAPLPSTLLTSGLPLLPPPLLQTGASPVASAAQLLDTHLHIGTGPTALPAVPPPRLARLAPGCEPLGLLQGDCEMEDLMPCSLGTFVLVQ
Method: as §1, §2, §3, §4, §5, §6, §7, §8

[3] = biological target: T3, SIK3 (Homo sapiens, UniProt Q9Y2K2); experiment: 33P radioactive kinase assay, SIK3; conditions: 33P radioactive assay; AMARA 7 μM; 15 μM ATP; 80 min; average IC50
T3 construct: purchased SignalChem S12-11G-100
T3 sequence (Q9Y2K2 59-365 limits assumed): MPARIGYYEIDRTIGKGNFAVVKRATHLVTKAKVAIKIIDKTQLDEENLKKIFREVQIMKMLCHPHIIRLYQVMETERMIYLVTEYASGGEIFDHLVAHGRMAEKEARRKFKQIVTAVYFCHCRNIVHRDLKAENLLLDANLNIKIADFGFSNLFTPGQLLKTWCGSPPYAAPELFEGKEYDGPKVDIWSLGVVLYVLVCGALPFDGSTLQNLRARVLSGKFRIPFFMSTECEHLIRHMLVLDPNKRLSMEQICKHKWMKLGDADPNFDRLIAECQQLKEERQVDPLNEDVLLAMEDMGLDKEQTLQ
Method: as §1, §2, §3, §4, §5, §6, §7, §8

[4] = biological target: T3, SIK3; experiment: ADP-Glo kinase assay, SIK3
Summary of the method: (§9)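 ADP-Glo format, luminescent. Room-temperature kinase reaction lasting 120 min, followed by ATP removal (40 min) and ADP detection (30 min); 10 μM staurosporine serves as full-inhibition control, 1% DMSO as uninhibited control.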

[5] = biological target: T2, SIK1; experiment: ADP-Glo kinase assay, SIK1
Summary of the method: as §9

[6] = biological target: T1, SIK2; experiment: ADP-Glo kinase assay, SIK2
Summary of the method: as §9

T1 sequence (Q9H0K1 whole entry): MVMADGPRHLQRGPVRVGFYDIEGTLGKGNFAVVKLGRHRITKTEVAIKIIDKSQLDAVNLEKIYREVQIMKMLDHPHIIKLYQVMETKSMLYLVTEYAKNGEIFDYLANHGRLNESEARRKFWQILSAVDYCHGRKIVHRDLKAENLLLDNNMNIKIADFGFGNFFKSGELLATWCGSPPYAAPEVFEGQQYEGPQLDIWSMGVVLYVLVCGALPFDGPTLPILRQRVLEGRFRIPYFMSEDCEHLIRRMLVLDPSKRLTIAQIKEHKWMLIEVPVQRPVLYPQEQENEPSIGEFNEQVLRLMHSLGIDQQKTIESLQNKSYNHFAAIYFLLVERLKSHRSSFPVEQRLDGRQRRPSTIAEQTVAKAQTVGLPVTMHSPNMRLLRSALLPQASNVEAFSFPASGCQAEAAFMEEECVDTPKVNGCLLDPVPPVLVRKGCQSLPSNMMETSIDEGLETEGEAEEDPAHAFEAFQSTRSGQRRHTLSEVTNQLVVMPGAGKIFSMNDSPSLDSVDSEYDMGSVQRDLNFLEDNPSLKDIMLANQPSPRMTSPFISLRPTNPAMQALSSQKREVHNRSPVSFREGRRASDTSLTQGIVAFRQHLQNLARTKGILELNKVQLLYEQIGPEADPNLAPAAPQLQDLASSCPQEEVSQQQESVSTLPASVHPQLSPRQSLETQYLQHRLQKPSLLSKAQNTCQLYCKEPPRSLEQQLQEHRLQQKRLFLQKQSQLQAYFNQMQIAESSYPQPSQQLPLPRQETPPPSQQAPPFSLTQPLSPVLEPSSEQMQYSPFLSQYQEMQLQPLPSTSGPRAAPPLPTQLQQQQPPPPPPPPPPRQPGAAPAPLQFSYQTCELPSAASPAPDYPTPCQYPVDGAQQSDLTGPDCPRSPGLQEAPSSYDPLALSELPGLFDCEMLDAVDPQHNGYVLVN

| SMILES | IC50 [1] | IC50 [2] | IC50 [3] | IC50 [4] | IC50 [5] | IC50 [6] |
| --- | --- | --- | --- | --- | --- | --- |
| COc1cc(-n2cnc3cc(C4(C#N)CCC4)ccc32)cc(OC)c1C(=O)NC1CC1 [Cpd 14, 4-[5-(1-cyanocyclobutyl)benzimidazol-1-yl]-N-cyclopropyl-2,6-dimethoxy-benzamide] | > 500 nM | > 500 nM | > 500 nM |  |  |  |
| COc1cc(-c2cnc3cc(C(C)(C)C#N)ccn23)cc(OC)c1C(=O)N1CC(F)(F)C1 [Cpd 18, 2-[3-[4-(3,3-difluoroazetidine-1-carbonyl)-3,5-dimethoxy-phenyl]imidazo[1,2-a]pyridin-7-yl]-2-methyl-propanenitrile] | > 500 nM | > 500 nM | 10 to 100 nM | 10 to 100 nM | > 500 nM | > 500 nM |
| COc1cc(-c2cnc3cc(C4CCCN(C(=O)OC(C)(C)C)C4)ccn23)cc(OC)c1C(=O)NCC(F)(F)F (stereo not drawn) [Cpd 21, tert-butyl 3-[3-[3,5-dimethoxy-4-(2,2,2-trifluoroethylcarbamoyl)phenyl]imidazo[1,2-a]pyridin-7-yl]piperidine-1-carboxylate] | 100 to 500 nM | > 500 nM | 10 to 100 nM |  |  |  |
| COc1cc(-c2cnc3cc(C4CCN(C)CC4)ccn23)cc(OC)c1C(=O)NCC(F)(F)F [Cpd 22, 2,6-dimethoxy-4-[7-(1-methyl-4-piperidyl)imidazo[1,2-a]pyridin-3-yl]-N-(2,2,2-trifluoroethyl)benzamide] | 100 to 500 nM | > 500 nM | 10 to 100 nM | 10 to 100 nM | > 500 nM | 100 to 500 nM |
| COc1cc(-c2cnc3cc(C4CCCNC4)ccn23)cc(OC)c1C(=O)NCC(F)(F)F (stereo not drawn) [Cpd 23, 2,6-dimethoxy-4-[7-(3-piperidyl)imidazo[1,2-a]pyridin-3-yl]-N-(2,2,2-trifluoroethyl)benzamide] | 100 to 500 nM | > 500 nM | 10 to 100 nM | 10 to 100 nM | > 500 nM | 100 to 500 nM |
| COc1cc(-c2cnc3cc(C(C)(C)C(N)=O)ccn23)cc(OC)c1C(=O)NC1CC1 [Cpd 29, 4-[7-(2-amino-1,1-dimethyl-2-oxo-ethyl)imidazo[1,2-a]pyridin-3-yl]-N-cyclopropyl-2,6-dimethoxy-benzamide] | > 500 nM | > 500 nM | 10 to 100 nM |  |  |  |
| CCNC(=O)c1c(OC)cc(-c2cnc3cc(C(C)(C)C(N)=O)ccn23)cc1OC [Cpd 31, 4-[7-(2-amino-1,1-dimethyl-2-oxo-ethyl)imidazo[1,2-a]pyridin-3-yl]-N-ethyl-2,6-dimethoxy-benzamide] | > 500 nM | > 500 nM | 100 to 500 nM |  |  |  |
| COc1cc(-c2cnc3cc(C(C)(C)C#N)ccn23)cc(OC)c1C(=O)NCC#N [Cpd 32, N-(cyanomethyl)-4-[7-(1-cyano-1-methyl-ethyl)imidazo[1,2-a]pyridin-3-yl]-2,6-dimethoxy-benzamide] | > 500 nM | > 500 nM | 10 to 100 nM | 10 to 100 nM | > 500 nM | > 500 nM |

Now from value to compound:

| IC50 [1] | IC50 [2] | IC50 [3] | IC50 [4] | IC50 [5] | IC50 [6] | SMILES |
| --- | --- | --- | --- | --- | --- | --- |
| > 500 nM | > 500 nM | > 500 nM |  |  |  | COc1cc(-n2cnc3cc(C4CCCN(C(=O)OC(C)(C)C)C4)ccc32)cc(OC)c1C(=O)NCC(F)(F)F (stereo not drawn) [Cpd 7, tert-butyl 3-[1-[3,5-dimethoxy-4-(2,2,2-trifluoroethylcarbamoyl)phenyl]benzimidazol-5-yl]piperidine-1-carboxylate] |
| > 500 nM | > 500 nM | 100 to 500 nM |  |  |  | COc1cc(-n2cnc3cc(C4CCCNC4)ccc32)cc(OC)c1C(=O)NCC(F)(F)F (stereo not drawn) [Cpd 8, 2,6-dimethoxy-4-[5-(3-piperidyl)benzimidazol-1-yl]-N-(2,2,2-trifluoroethyl)benzamide] |
| > 500 nM | > 500 nM | 100 to 500 nM |  |  |  | COc1cc(-n2cnc3cc(C4CCCN(CC#N)C4)ccc32)cc(OC)c1C(=O)NCC(F)(F)F (stereo not drawn) [Cpd 9, 4-[5-[1-(cyanomethyl)-3-piperidyl]benzimidazol-1-yl]-2,6-dimethoxy-N-(2,2,2-trifluoroethyl)benzamide] |
| > 500 nM | > 500 nM | 100 to 500 nM | 100 to 500 nM | > 500 nM | > 500 nM | COc1cc(-n2cnc3cc(C(C)(C)C#N)ccc32)cc(OC)c1C(=O)NCC(F)(F)F [Cpd 10, 4-[5-(1-cyano-1-methyl-ethyl)benzimidazol-1-yl]-2,6-dimethoxy-N-(2,2,2-trifluoroethyl)benzamide] |
| > 500 nM | > 500 nM | > 500 nM | 100 to 500 nM | > 500 nM | > 500 nM | COc1cc(-n2cnc3cc(C(C)(C)C#N)ccc32)cc(OC)c1C(=O)NC1CC1 [Cpd 11, 4-[5-(1-cyano-1-methyl-ethyl)benzimidazol-1-yl]-N-cyclopropyl-2,6-dimethoxy-benzamide] |
| > 500 nM | > 500 nM | 100 to 500 nM |  |  |  | COc1cc(-n2cnc3cc(C(C)(C)C#N)ccc32)cc(OC(F)F)c1C(=O)NC1CC1 [Cpd 12, 4-[5-(1-cyano-1-methyl-ethyl)benzimidazol-1-yl]-N-cyclopropyl-2-(difluoromethoxy)-6-methoxy-benzamide] |
| > 500 nM | > 500 nM | > 500 nM |  |  |  | COc1cc(-n2cnc3cc(C4(C#N)CCC4)ccc32)cc(OC)c1C(=O)NCC(F)(F)F [Cpd 13, 4-[5-(1-cyanocyclobutyl)benzimidazol-1-yl]-2,6-dimethoxy-N-(2,2,2-trifluoroethyl)benzamide] |
| > 500 nM | > 500 nM | > 500 nM |  |  |  | COc1cc(-n2cnc3cc(C(C)C#N)ccc32)cc(OC)c1C(=O)NCC(F)(F)F (stereo not drawn) [Cpd 15, 4-[5-(1-cyanoethyl)benzimidazol-1-yl]-2,6-dimethoxy-N-(2,2,2-trifluoroethyl)benzamide] |
| > 500 nM | > 500 nM | 100 to 500 nM | 10 to 100 nM | > 500 nM | > 500 nM | CCNC(=O)c1c(OC)cc(-c2cnc3cc(C(C)(C)C#N)ccn23)cc1OC [Cpd 30, 4-[7-(1-cyano-1-methyl-ethyl)imidazo[1,2-a]pyridin-3-yl]-N-ethyl-2,6-dimethoxy-benzamide] |

From patent US12391679B2, “Benzamide-substituted bicyclic imidazo- and pyrazolo-fused -pyridine, -pyrimide, and -pyridazine compounds for treatment of inflammatory diseases” (ONCO3R Therapeutics BV, priority 2019, dated 2025)
